Source: PubChem BioAssay AID248 (DTP/NCI, 2004)
Values joined by “and” are separate entries in the source; they are usually repeats but may differ in a detail not shown here. Equal values may be shown once. Toxic doses and inconclusive results are not listed. Cut-off read from the data, not from the text of the source: active = T/C of 150% or more; inactive = T/C below 125%.

Tested on: L1210 leukemia ip in BDF1 mice, survival T/C
Assay: NCI In Vivo Anticancer Drug Screen. Data for tumor model L1210 Leukemia (intraperitoneal) in B6D2F1 (BDF1) mice
Settings: endpoint: mean survival time, higher = longer survival
Procedure, shortened: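 In this screen, tumor-bearing mice given compound are compared to those given vehicle, and their survival values are reported as a treated-to-control quotient.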

[1] = dose: 100.0 mg/kg/injection, schedule: Q01DX009 (ip), vehicle: Klucel (hydroxypropylcellulose) (HPC)
[2] = dose: 200.0 mg/kg/injection, schedule: Q01DX009 (ip), vehicle: Klucel (hydroxypropylcellulose) (HPC)
[3] = dose: 100.0 mg/kg/injection, schedule: Q01DX001 (ip), vehicle: saline
[4] = dose: 200.0 mg/kg/injection, schedule: Q01DX001 (ip), vehicle: saline
[5] = dose: 400.0 mg/kg/injection, schedule: Q01DX001 (ip), vehicle: saline
[6] = dose: 100.0 mg/kg/injection, schedule: Q01DX001 (ip), vehicle: Klucel (hydroxypropylcellulose) (HPC)
[7] = dose: 400.0 mg/kg/injection, schedule: Q01DX009 (ip), vehicle: Klucel (hydroxypropylcellulose) (HPC)
[8] = dose: 25.0 mg/kg/injection, schedule: Q01DX009 (ip), vehicle: Klucel (hydroxypropylcellulose) (HPC)
[9] = dose: 50.0 mg/kg/injection, schedule: Q01DX009 (ip), vehicle: Klucel (hydroxypropylcellulose) (HPC)
[10] = dose: 100.0 mg/kg/injection, schedule: Q01DX009 (ip), vehicle: saline with Tween-80
[11] = dose: 200.0 mg/kg/injection, schedule: Q01DX009 (ip), vehicle: saline with Tween-80
[12] = dose: 400.0 mg/kg/injection, schedule: Q01DX009 (ip), vehicle: saline with Tween-80
[13] = dose: 100.0 mg/kg/injection, schedule: Q04DX002 (ip), vehicle: Klucel (hydroxypropylcellulose) (HPC)
[14] = dose: 200.0 mg/kg/injection, schedule: Q04DX002 (ip), vehicle: Klucel (hydroxypropylcellulose) (HPC)
[15] = dose: 400.0 mg/kg/injection, schedule: Q04DX002 (ip), vehicle: Klucel (hydroxypropylcellulose) (HPC)

Measured: T/C

O=C(C[N+]12CN3CN(CN(C3)C1)C2)c1ccc(Br)cc1
inactive: dose: 100.0 mg/kg/injection, schedule: Q01DX005 (ip), vehicle: Klucel (hydroxypropylcellulose) (HPC) 103 % of control | [1] 111 % of control | dose: 200.0 mg/kg/injection, schedule: Q01DX005 (ip), vehicle: Klucel (hydroxypropylcellulose) (HPC) 109 % of control | [2] 107 % of control | dose: 400.0 mg/kg/injection, schedule: Q01DX005 (ip), vehicle: Klucel (hydroxypropylcellulose) (HPC) 111 % of control

CN1C2CCC1CC(OC(=O)c1ccc(O)cc1)C2 (configuration not stated)
inactive: dose: 9.38 mg/kg/injection, schedule: Q01DX001 (ip), vehicle: saline 94 % of control | dose: 18.75 mg/kg/injection, schedule: Q01DX001 (ip), vehicle: saline 102 % of control

NCC1OC(n2cnc3c(=O)[nH]c(N)nc32)C(O)C1O (configuration not stated)
inactive: [3] 101 % of control | [4] 95 % of control | [5] 91 % of control

Cc1ccc([P+](Cc2ccccc2)(c2ccccc2)c2cccc3ccccc23)cc1 (configuration not stated)
inactive: dose: 15.0 mg/kg/injection, schedule: Q01DX001 (ip), vehicle: carboxymethylcellulose (CMC) 94 % of control | dose: 30.0 mg/kg/injection, schedule: Q01DX001 (ip), vehicle: carboxymethylcellulose (CMC) 93 % of control

COc1ccc(-n2c(=O)c(N=Nc3ccc(Cl)cc3)c(O)n(-c3ccccc3Cl)c2=S)cc1
inactive: dose: 50.0 mg/kg/injection, schedule: Q01DX001 (ip), vehicle: Klucel (hydroxypropylcellulose) (HPC) 106 % of control | [6] 97 % of control | dose: 200.0 mg/kg/injection, schedule: Q01DX001 (ip), vehicle: Klucel (hydroxypropylcellulose) (HPC) 95 % of control

Cc1cccc(Cl)c1NC(=O)c1ccc(C(=O)Nc2c(C)cccc2Cl)cc1
inactive: [1] 87 % of control | [2] 94 % of control | [7] 94 % of control

CCN(CC)CCCC(C)Nc1cc(C)nc(/N=C(\N)Nc2ccc(Cl)c(Cl)c2)n1 (configuration not stated)
inactive: [8] 96 % of control | [9] 94 % of control | [6] 92 % of control

COC(=O)/C(O)=C/C(N)=O.COC(=O)/C(O)=C/C(N)=O.[Cu]
inactive: dose: 9.37 mg/kg/injection, schedule: Q01DX001 (ip), vehicle: carboxymethylcellulose (CMC) 89 % of control | dose: 18.75 mg/kg/injection, schedule: Q01DX001 (ip), vehicle: carboxymethylcellulose (CMC) 87 % of control | dose: 37.5 mg/kg/injection, schedule: Q01DX001 (ip), vehicle: carboxymethylcellulose (CMC) 96 % of control

NS(=O)(=O)c1cccc([N+](=O)[O-])c1
inactive: dose: 20.0 mg/kg/injection, schedule: Q04DX003 (ip), vehicle: Klucel (hydroxypropylcellulose) (HPC) 104 % of control | [8] 107 % of control | dose: 40.0 mg/kg/injection, schedule: Q04DX003 (ip), vehicle: Klucel (hydroxypropylcellulose) (HPC) 98 % of control | [9] 100 % of control | dose: 80.0 mg/kg/injection, schedule: Q04DX003 (ip), vehicle: Klucel (hydroxypropylcellulose) (HPC) 107 % of control | [1] 96 % of control | dose: 100.0 mg/kg/injection, schedule: Q04DX003 (ip), vehicle: Klucel (hydroxypropylcellulose) (HPC) 96 % of control

O=C(CCl)NCC1(c2ccc(Cl)cc2)SC(CNC(=O)CCl)(c2ccc(Cl)cc2)S1 (configuration not stated)
inactive: [10] 97 % of control | [11] 92 % of control | [12] 104 % of control

CCOC(=O)C1C(O)CC2COC(=O)C2C1c1ccc(OC(C)=O)cc1 (configuration not stated)
inactive: dose: 100.0 mg/kg/injection, schedule: Q01DX001 (ip), vehicle: other 100 % of control | dose: 200.0 mg/kg/injection, schedule: Q01DX001 (ip), vehicle: other 95 % of control

c1ccc2c[s+]ccc2c1
inactive: dose: 100.0 mg/kg/injection, schedule: Q04DX002 (ip), vehicle: saline 90 % of control | dose: 200.0 mg/kg/injection, schedule: Q04DX002 (ip), vehicle: saline 94 % of control | dose: 400.0 mg/kg/injection, schedule: Q04DX002 (ip), vehicle: saline 103 % of control

CCOC(=O)C1OC(n2cnc3c(N)ncnc32)C(O)C1O (configuration not stated)
inactive: dose: 100.0 mg/kg/injection, schedule: Q01DX005 (ip), vehicle: saline 98 % of control | dose: 200.0 mg/kg/injection, schedule: Q01DX005 (ip), vehicle: saline 97 % of control

O=C(CNC(=O)c1ccccc1)N/N=C\c1c[nH]c2ccccc12
inactive: [10] 97 % of control | [11] 99 % of control | [12] 100 % of control

COC(=O)c1ccccc1NC(=O)c1cc(C(=O)O)c(C(=O)Nc2ccccc2C(=O)OC)cc1C(=O)O
inactive: [10] 93 % of control and 107 % of control | dose: 100.0 mg/kg/injection, schedule: Q04DX002 (ip), vehicle: saline with Tween-80 100 % of control and 103 % of control | dose: 100.0 mg/kg/injection, schedule: Q04DX003 (ip), vehicle: saline with Tween-80 102 % of control | [11] 97 % of control and 113 % of control | dose: 200.0 mg/kg/injection, schedule: Q04DX002 (ip), vehicle: saline with Tween-80 106 % of control and 109 % of control | dose: 200.0 mg/kg/injection, schedule: Q04DX003 (ip), vehicle: saline with Tween-80 100 % of control | [12] 97 % of control and 92 % of control | dose: 400.0 mg/kg/injection, schedule: Q04DX002 (ip), vehicle: saline with Tween-80 96 % of control and 92 % of control | dose: 400.0 mg/kg/injection, schedule: Q04DX003 (ip), vehicle: saline with Tween-80 102 % of control

O=[N+]([O-])c1cc(Cl)c(Cl)cc1[N+](=O)[O-]
inactive: dose: 50.0 mg/kg/injection, schedule: Q04DX002 (ip), vehicle: Klucel (hydroxypropylcellulose) (HPC) 106 % of control | dose: 75.0 mg/kg/injection, schedule: Q04DX002 (ip), vehicle: Klucel (hydroxypropylcellulose) (HPC) 103 % of control | dose: 150.0 mg/kg/injection, schedule: Q04DX002 (ip), vehicle: Klucel (hydroxypropylcellulose) (HPC) 101 % of control and 110 % of control

Cc1cccc(Cl)c1NC(=O)Nc1ccc(S(N)(=O)=O)cc1
inactive: [1] 94 % of control | [2] 102 % of control | [7] 92 % of control

NC(=S)N/N=C(/Cc1ccccc1)CC(O)(C(F)(F)F)C(F)(F)F
inactive: dose: 50.0 mg/kg/injection, schedule: Q01DX009 (ip), vehicle: gum acacia 92 % of control | dose: 100.0 mg/kg/injection, schedule: Q01DX009 (ip), vehicle: gum acacia 91 % of control | dose: 100.0 mg/kg/injection, schedule: Q04DX003 (ip), vehicle: gum acacia 94 % of control | dose: 200.0 mg/kg/injection, schedule: Q04DX003 (ip), vehicle: gum acacia 105 % of control

CCCCCCCCCCCCCCCCOc1ccc(F)cc1
inactive: [13] 103 % of control | [14] 118 % of control | [15] 107 % of control

O=C(Nc1cccc2ccccc12)c1ccc([N+](=O)[O-])s1
inactive: dose: 50.0 mg/kg/injection, schedule: Q01DX005 (ip), vehicle: water 87 % of control | dose: 100.0 mg/kg/injection, schedule: Q01DX005 (ip), vehicle: water 89 % of control | dose: 200.0 mg/kg/injection, schedule: Q01DX005 (ip), vehicle: water 87 % of control | dose: 400.0 mg/kg/injection, schedule: Q01DX005 (ip), vehicle: water 91 % of control

CS(=O)(=O)OCCN(CCOS(C)(=O)=O)c1ccc([N+](=O)[O-])c(Cl)c1
inactive: dose: 50.0 mg/kg/injection, schedule: Q01DX001 (ip), vehicle: saline 96 % of control | [3] 96 % of control | [4] 100 % of control | [5] 91 % of control

S=C(Nc1ccccc1)Nc1ccccc1Cl
inactive: [13] 100 % of control | [14] 100 % of control | [15] 95 % of control
